According to patent US5834491A, “Bis(2-aminopyridine)s, preparation method therefor and use thereof for controlling parasitic infections” (priority 1994, dated 1998):
Counter-ions that a name gives are not always drawn. Like-named read-outs stand apart in the source and are kept apart here.

How the values were obtained:
[1] = cited from earlier work
[2] = cited from earlier work; remark: listed apart in the source
Babesia [3] = conditions: cited from earlier work
Babesia [4] = conditions: cited from earlier work; remark: listed apart in the source
Babesia [5] = conditions: McColm 1984; cited from earlier work
Plasmodium falciparum = test: Antimalarial activity in vitro towards Plasmodium falciparum ([3H]hypoxanthine incorporation, infected human erythrocytes); assay type: cell-based; conditions: Erythrocyte, approximately 48 hours; for IC50 upper bound (active at tested concentration): Table I
Procedure: Evaluation of the antimalarial activity in vitro is carried out according to the method of DESJARDINS, CANFIELD, HATNES and CHULAY (Antimicrob. Agents Chemother., 1979, 16, 710-718). A compound according to the invention is brought into contact for approximately 48 hours with human erythrocytes infected with Plasmodium falciparum. When a radioactive nucleic acid precursor, hypoxanthine, is added to the preparation, only erythrocytes infected with Plasmodium and not affected by the said compound incorporate this precursor. […] The results are presented in Table I below, in the form of an IC50 (or ED50) (concentration of compound capable of inhibiting in vitro the growth of the parasites by 50%).
The derivatives according to the above examples are tested at three concentrations, 100, 33 and 10 nanomolar.

[6] = tested on: Plasmodium vinckei, petteri or chabaudi; test: Antimalarial activity in vivo, infected mice, 4 days; design: species or system petteri or chabaudi (male Swiss mice); conditions: ip, I.P., twice daily for 4 consecutive days
Procedure: This activity is measured according to the test described by PETERS W. (Chemotherapy and Drug resistance in Malaria, 1970). A compound according to the invention is administered for 4 consecutive days to mice infected beforehand with malaria using Plasmodium vinckei, petteri or chabaudi.
The said compound is dissolved in 0.9% aqueous NaCl solution or, where appropriate, in 10% aqueous gum arabic solution. The preparations are thus administered intraperitoneally or subcutaneously to male Swiss mice of average weight 30 to 40 g which have been infected beforehand intravenously with Plasmodium petterei or P. chabaudi (10^6 infected cells). The compound is administered twice daily for 4 consecutive days, the first injection being performed 2 hours after infestation, and the second 10 hours after. The parasitaemia is determined by means of a smear on the day following the end of the treatment.
The results are collated in Table II, in the form of an ED50 (dose of compound administered in vivo capable of a 50% inhibition of the growth of the parasites).

[7] = Semi-chronic toxicity in vivo; conditions: mouse, mice
[8] = tested on: biosynthesis of phosphatidylcholine; test: Specificity towards phosphatidylcholine biosynthesis relative to other macromolecules (radiolabelled precursor incorporation); assay type: cell-based; conditions: relative to nucleic acids, proteins, other phospholipids
Procedure: Verification of the mechanism of action is carried out on the various derivatives according to the invention by studying the specific interference with phospholipid biosynthesis and measuring the biosynthesis of the different biomolecules, nucleic acids, proteins and phospholipids, on the basis of the incorporation of radiolabelled precursors, [^3 H]hypoxanthine (see above), [^3 H]isoleucine and [^3 H]choline. The specificity in the precise realm of phospholipid metabolism is determined by comparison with the effect on the incorporation of [^3 H]ethanolamine into phosphatidylethanolamine (Ancelin M. L., Vialettes F. and Vial H. J., 1991, Anal. Biochem., 199, 203-209).

Compound: C[C@H]1[C@@H](O)O[C@@H]2O[C@@]3(C)CC[C@H]4[C@H](C)CC[C@@H]1[C@@]24OO3 [dihydroartemisinine]
- water-solubility [1]: low water-solubility
- half-life [2]: short half-life

Compound: Nc1ncnc2c1ccn2[C@@H]1O[C@H](CO)[C@@H](O)[C@H]1O [tubercidin]
- activity in vitro against Babesia (Babesia [3]): active in vitro
- results in vivo against Babesia (Babesia [4]): without, however, giving good results in vivo

Compound: CN(C)C1C(=O)C(C(N)=O)=C(O)C2(O)C(=O)C3=C(O)c4c(O)cccc4C(C)(O)C3CC12 (stereo not shown) [tetracycline]
- activity in vitro against Babesia (Babesia [3]): active in vitro
- results in vivo against Babesia (Babesia [4]): without, however, giving good results in vivo

Compound: CC[C@H]1OC(=O)C[C@@H](O)[C@H](C)[C@@H](O[C@@H]2O[C@H](C)[C@@H](O[C@H]3C[C@@](C)(O)[C@@H](O)[C@H](C)O3)[C@H](N(C)C)[C@H]2O)[C@@H](CC=O)C[C@@H](C)C(=O)/C=C/C(C)=C/[C@@H]1CO[C@@H]1O[C@H](C)[C@@H](O)[C@@H](OC)[C@H]1OC [tylosin]
- resistance of Babesia (Babesia [5]): increased resistance

Compound: CO[C@H]1/C=C/O[C@@]2(C)Oc3c(C)c(O)c4c(O)c(cc(O)c4c3C2=O)NC(=O)/C(C)=C\C=C\[C@H](C)[C@H](O)[C@@H](C)[C@@H](O)[C@@H](C)[C@H](OC(C)=O)[C@@H]1C [rifamycin]
- resistance of Babesia (Babesia [5]): increased resistance

Compound: Cc1ccn(CCCCCCCCCCCCn2ccc(C)cc2=N)c(=N)c1 [Example 1, 1,1'-(1,12-dodecanediyl)bis(4-methyl-2(1H)-pyridinimine) dihydrobromide]
- IC50 upper bound (active at tested concentration) (Plasmodium falciparum; 33 nM, read-out: Plasmodium IC50 in vitro resp. at 33 nM): < 33 nM
- IC50 upper bound (active at tested concentration) (Plasmodium falciparum; 100 nM, read-out: Plasmodium IC50 in vitro resp. 100 nM): < 100 nM
- IC50 (Plasmodium falciparum; Table II): 0.5 nM
- ED50 [6]: 1.2 mg/kg
- LD50 ([7]; ip, I.P., 2 injections daily for four days, read-out: Toxicity LD50 I.P.): 30 mg/kg
- LD50 ([7]; po, P.O., semi-chronic, four days, read-out: Toxicity LD50 P.O.): 365 mg/kg
- specificity of action towards the biosynthesis of phosphatidylcholine, relative to the biosyntheses of the other macromolecules [8]: best specificity of action towards the biosynthesis of phosphatidylcholine

Compound: C[C@@H]1CC[C@H]2[C@@H](C)C(=O)O[C@@H]3O[C@@]4(C)CC[C@@H]1[C@]32OO4 [artemisinine]
- water-solubility [1]: low water-solubility

Compound: C[C@H]1[C@H](OC(=O)CCC(=O)O)O[C@@H]2O[C@@]3(C)CC[C@H]4[C@H](C)CC[C@@H]1[C@@]24OO3 [artesunate]
- water-solubility [1]: low water-solubility
- half-life [2]: short half-life

Compound: CO[C@H]1O[C@@H]2O[C@@]3(C)CC[C@H]4[C@H](C)CC[C@@H]([C@H]1C)[C@@]24OO3 [artemether]
- water-solubility [1]: low water-solubility
- half-life [2]: short half-life

Compound: CCO[C@H]1O[C@@H]2O[C@@]3(C)CC[C@H]4[C@H](C)CC[C@@H]([C@H]1C)[C@@]24OO3 [artether]
- water-solubility [1]: low water-solubility
- half-life [2]: short half-life

Compound: gramicidin D
- resistance of Babesia (Babesia [5]): increased resistance

Compound: O=C1C(O)=C(CCCCCCCCC2CCCCC2)C(=O)c2ccccc21 [menoctone]
- activity in vitro against Babesia (Babesia [3]): active in vitro
- results in vivo against Babesia (Babesia [4]): without, however, giving good results in vivo
